MIC data for one compound are collected here from patent publication US4060524A, “6-Acylamido-2,2-dimethyl-3-(pyrimidin-4,6-dione-2-yl)penams” (Pfizer Inc., priority 1976, dated 1977).

Values after ≈ are worked out from the molar mass of the structure shown.

Experiment in all cases: in vitro MIC, two-fold serial dilution in brain-heart infusion medium
Common to all, as to format: cell-based

Assay [1] relates to Staphylococcus aureus 01AA005. How it is done:
(§1) The in vitro activity of the herein-described compounds renders them useful for topical application in the form of ointments, creams and the like, or for sterilization purposes, e.g., sickroom utensils. For topical application, the dosage level is on the order of from about 10 to 200 mg./kg./day.
(§2) The in vitro (MIC) values for 6-(phenylacetamido)-2,2-dimethyl-3-(pyrimidin-4,6-dione-2-yl)penam against several organisms is presented below: […]

Assay [2] has as its system Streptococcus pyogenes 02C203. As for the experimental part:
as §1, §2

The test system of assay [3] is Pasteurella multocida 59A001. As for the experimental part:
as §1, §2

In assay [4] the test system is Staphylococcus aureus 01A099. How it is done: as §1, §2

Take `CC1(C)S[C@@H]2[C@H](NC(=O)Cc3ccccc3)C(=O)N2[C@H]1C1=NC(=O)CC(=O)N1` [6-Phenylacetamido-2,2-dimethyl-3-(pyrimidin-4,6-dione-2yl)penam]: the minimum inhibitory concentration (MIC) worked out at 50 µg/mL (≈ 125 µM) in assay [1], 3.12 µg/mL (≈ 7.79 µM) in assay [2], 50 µg/mL (≈ 125 µM) in assay [3] and 50 µg/mL (≈ 125 µM) in assay [4].

The MIC is the lowest concentration found to suppress growth. High values mean weaker potency, low ones greater potency.
